A short description of one data set: Solubility. It counts as physicochemical. To be noted: for solubility: organic solvent or mixture.
The subject of data set [1] is leaf discs of tobacco without (GUS-) introduced β-glucuronidase genes. The class given is cell-based, Nicotiana tabacum 'Wisconsin 38'. Conditions: test compounds at several concentrations up to 250 μM in MSO.
For data set [2], the system named is leaf discs of tobacco with (GUS+) introduced β-glucuronidase genes. The class given is cell-based, Nicotiana tabacum 'Wisconsin 38'. To be noted: test compounds at several concentrations up to 250 μM in MSO.
Data set [3] has as its target β-glucuronidase from E. coli (Escherichia coli, UniProt P05804). Kind of data set: Hydrolysis by β-glucuronidase (GUS), HPLC/TLC. It counts as biochemical. Conditions: 37° C. The protocol: […] […] This confirms the identity of the product as a conjugate of BA and β-D-glucuronic acid.
[…] The presence of hydrolysis products is then determined using HPLC and TLC.

Data set [4] relates to sugarbeet cotyledon explants. Kind of data set: Effect of D-xylose in sugarbeets with and without light. The class given is cell-based. The protocol: Sugarbeet is transformed by the so-called cot-pet method as described in PCT Patent Application No. PCT DK92/00108 wherein cotyledons including the petiole are used as explants. Seedlings are derived from seeds germinated and grown for 4-7 weeks at 12° C. in a 16 h day/8 h night regime. Cotyledons are excised 2-3 mm below the node, tawn apart and cultured either in the dark or in light and in the presence or absence of xylose.

In data set [5] the test system is potato stem segments with control (Kanamycin resistant gene). Kind of data set: Selection on D-xylose, potato transformed with control (kanamycin resistant gene). The class given is cell-based. As for the experimental part:
(§1) Shoots are regenerated from potato stem segments treated with various concentrations of sucrose and D-xylose. The number of shoots are counted after 11 weeks of selection. 105 explants are tested per treatment.

In data set [6] the test system is potato stem segments. Kind of data set: Carbohydrate sources, potato stem segments, 9 weeks. The class given is cell-based. Conditions: for # of Shoots per explant / activity at 5000 µg/mL / activity at 10000 µg/mL: 9 weeks; for activity at 5000 µg/mL / activity at 10000 µg/mL: Solanum tuberosum. The source says:
Similar results are observed with potato stem segments after 9 weeks of culturing.

In data set [7] the test system is potato stem segments with pAH-Xyl. Kind of data set: Selection on D-xylose, potato transformed with pAH-Xyl. The class given is cell-based. As for the experimental part: as §1
In data set [8] the test system is potato stem segments. Kind of data set: D-xylose as carbohydrate source during shoot regeneration. The class given is cell-based. The protocol:
Explants are produced and treated as described above under "selection of transformed tissue", except that the selection/regeneration substrate was not supplemented with kanamycin or cabenicillin, and that plant tissue is not transformed. Thus the only subcultivation step is when the explants are transferred from the co-cultivation substrate to the selection/regeneration substrate which is supplemented with xylose at the concentrations indicated below. The number of regenerated shoots is recorded after 12 weeks.

The next data set deals with explants. Kind of data set: Inhibition of the toxicity of mannose by methyl-3-O-glucose. The class given is cell-based. Conditions: MOG 0 g/l; mannose 0 g/l; sucrose 10 g/l. The source says:
Example 25 is repeated except that the selection/regeneration substrate is supplemented with methyl 3-0-glucose (MOG) at the concentrations indicated in Table 25. The percentage of live explants is registered after 8 weeks.

Data set [9] concerns non-transformed potato stem segments. Kind of data set: Inhibition by mannose of regeneration of shoots. It counts as cell-based, Solanum tuberosum. To be noted: mannose 0 g/l. The protocol:
This substrate is referred to hereafter as "selection/regeneration substrate". Regenerated plants are produced as described above, except that the shoot segments are not co-cultured with bacteria and the washing procedure consequential thereon is omitted. […] In general, mannose cannot be used as a carbohydrate source in most plant species. When mannose is added to plants it is metabolized and mannose 6-phosphate accumulates. Mannose 6-phosphate can be converted to fructose 6-phosphate by mannose 6-phosphate isomerase, the amount converted being dependent upon the activity of the isomerase. Such fructose 6-phosphate may be utilized by plants, but in principal high levels of mannose (whether or not an alternative carbohydrate source is available) are toxic to plants.

The test system of data set [10] is explants transgenic for the mannose 6-phosphate isomerase gene. Kind of data set: Shoot regeneration on mannose, sucrose and methyl-3-O-glucose, Man-6-P-isomerase. The class given is cell-based. Conditions: sucrose 10 g/l, no mannose, no methyl 3O-glucose; Transgenic tissue.
The next data set deals with Wild type explants. Kind of data set: Shoot regeneration on mannose, sucrose and methyl-3-O-glucose, wild type. It counts as cell-based. Conditions: sucrose 10 g/l, no mannose, no methyl 3O-glucose; Wild type tissue.
Setting [11] is: D-xylose 10 g/l, sucrose 0 g/l, 2 weeks in dark and 1 week in light.
Where [12] appears, read: D-xylose 10 g/l, sucrose 0 g/l, 3 weeks light.
[13] abbreviates: D-xylose 10 g/l, sucrose 10 g/l, 2 weeks in dark and 1 week in light.
Where [14] appears, read: D-xylose 10 g/l, sucrose 10 g/l, 3 weeks light.
Setting [15] is: sucrose 2.5 g/l, D-xylose 2.5 g/l.
[16] abbreviates: sucrose 2.5 g/l, D-xylose 2.5 g/l, 11 weeks, 105 explants.
Where [17] appears, read: sucrose 2.5 g/l, D-xylose 5.0 g/l.
The mark [18] stands for this setting: sucrose 2.5 g/l, D-xylose 7.5 g/l.
Setting [19] is: sucrose 5.0 g/l, D-xylose 2.5 g/l.
Setting [20] is: sucrose 5.0 g/l, D-xylose 5.0 g/l.
[21] abbreviates: sucrose 5.0 g/l, D-xylose 7.5 g/l.
The mark [22] stands for this setting: sucrose 10.0 g/l, D-xylose 2.5 g/l.
The mark [23] stands for this setting: sucrose 10.0 g/l, D-xylose 5.0 g/l.
Where [24] appears, read: sucrose 10.0 g/l, D-xylose 7.5 g/l.
Setting [25] is: 10 g/l, read-out: Size % of control.
Setting [26] is: 10 g/l, read-out: explants alive % of control.
Where [27] appears, read: D-xylose 0 g/l, sucrose 10 g/l, 2 weeks in dark and 1 week in light.
Where [28] appears, read: D-xylose 0 g/l, sucrose 10 g/l, 3 weeks light.

The structures appear in SMILES notation. In brackets after ≈: the same amount, converted by molar mass. Where a name gives a salt, the structure may show the parent alone. Read-outs that look alike come from different tables or passages of the source.

Sequence of β-glucuronidase from E. coli (P05804 whole entry, looked up): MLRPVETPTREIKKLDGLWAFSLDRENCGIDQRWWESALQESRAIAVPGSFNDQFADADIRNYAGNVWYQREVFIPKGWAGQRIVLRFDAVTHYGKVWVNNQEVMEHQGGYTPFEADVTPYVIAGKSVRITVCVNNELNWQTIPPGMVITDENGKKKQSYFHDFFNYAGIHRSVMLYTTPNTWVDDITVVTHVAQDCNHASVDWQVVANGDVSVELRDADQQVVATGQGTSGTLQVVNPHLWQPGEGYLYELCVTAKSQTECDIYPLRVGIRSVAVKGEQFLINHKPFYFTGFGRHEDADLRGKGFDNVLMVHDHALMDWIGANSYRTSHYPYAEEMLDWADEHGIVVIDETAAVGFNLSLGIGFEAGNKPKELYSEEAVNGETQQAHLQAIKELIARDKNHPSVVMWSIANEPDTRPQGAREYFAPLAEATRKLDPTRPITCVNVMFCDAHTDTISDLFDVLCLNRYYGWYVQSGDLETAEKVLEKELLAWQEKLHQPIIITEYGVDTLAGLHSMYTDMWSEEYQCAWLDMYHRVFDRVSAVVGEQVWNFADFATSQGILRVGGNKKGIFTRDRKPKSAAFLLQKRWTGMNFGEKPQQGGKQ

As usually defined, the solubility is the dissolved amount per volume that the medium holds. `NC(=O)[C@H]1O[C@@H](n2cnc(NCc3ccccc3)c3ncnc2-3)[C@H](O)[C@@H](O)[C@@H]1O` [BA3GNamide, 3-β-D-glucupyranuronamido-6-benzylaminopurine]: the solubility in the data set “Solubility” (50% aqueous methanol containing 25% acetic acid) was determined as 2400 µg/mL (≈ 5.99 mM). Besides, in “Solubility” (water or alcohol), the solubility in words result is recorded as “only sparingly soluble”. The “Shoot formation, GUS-” value in data set [1] is on record as “+ ("+" means shoot formation at concentrations below 250 μM)”. Also, the “Shoot formation, GUS+” value in data set [2] is given as “+ ("+" means shoot formation at concentrations below 250 μM)”.

As for `O=C(O)C=Cc1ccccc1O[C@@H]1O[C@H](C(=O)O)[C@@H](O)[C@H](O)[C@H]1O` [CouGN, 2-hydroxycinnamyl-β-D-glucopyranuronic acid], the “conversion to o-coumaric acid by GUS” value in data set [3] (5 mg in 1 ml, 1000 units Sigma Type G5897, 12 hours, TLC) is recorded as 93.4%. Besides, the solubility in the data set “Solubility” (aqueous buffer and 50% alcohol, aqueous buffer, pH 7, and 50% aqueous alcohol) came to 5000 µg/mL (≈ 14.7 mM).

For `O=C[C@H](O)[C@@H](O)[C@H](O)CO` [D-xylose], the “% expl. with shoots” value in data set [4] (setting [11]) is 13%; in data set [4] (setting [12]), 90%; in [4] (setting [13]), 80%; in data set [4] (setting [14]), 97%. For the same compound, the “Green (%)” value in [4] (setting [11]) is given as 77%; in data set [4] (setting [12]), 90%; in [4] (setting [13]) it was 97%; in data set [4] (setting [14]) it was 100%. The “weight (wet)” value came out at 0.37 g in data set [4] (setting [11]), 1.53 g in [4] (setting [12]), 0.89 g in data set [4] (setting [13]) and 5.47 g in data set [4] (setting [14]). Further, the “GUS+ Shoots” value in data set [5] (setting [15]), in [5] (setting [17]), in data set [5] (setting [18]), in data set [5] (setting [19]), in [5] (setting [20]) and in [5] (setting [21]) was 0 throughout. Also, the “GUS+ Shoots” value in data set [5] (setting [22]), in data set [5] (setting [23]), in data set [5] (setting [24]), in data set [7] (setting [15]), in data set [7] (setting [17]) and in [7] (setting [18]) was 0 throughout. The “GUS+ Shoots” value in data set [7] (setting [19]) stood at 0; in data set [7] (setting [20]), 0; in [7] (setting [21]) it was 0; in data set [7] (setting [22]), 5; in data set [7] (setting [23]), 0; in data set [7] (setting [24]) it was 4. For the same compound, the “GUS+ Shoots/explants” value in data set [5] (setting [15]), in [5] (setting [17]), in data set [5] (setting [18]), in [5] (setting [19]), in [5] (setting [20]) and in data set [5] (setting [21]) was 0 each time. For the same compound, the “GUS+ Shoots/explants” value in data set [5] (setting [22]), in data set [5] (setting [24]), in [7] (setting [15]), in [7] (setting [17]), in data set [7] (setting [18]) and in [7] (setting [19]) was 0 throughout. Further, the “GUS+ Shoots/explants” value in data set [7] (setting [20]) was 0; in data set [7] (setting [21]), 0; in data set [7] (setting [22]) it was 0.05; in data set [7] (setting [23]), 0; in [7] (setting [24]) it was 0.04. Moreover, the “No. Shoots” value in [5] (setting [16]), in data set [5] (setting [17]), in [5] (setting [18]), in data set [5] (setting [19]), in data set [5] (setting [20]) and in data set [5] (setting [21]) was 0 in each case. The “No. Shoots” value in [5] (setting [22]) is 32; in data set [5] (setting [23]), 5; in data set [5] (setting [24]) it was 2; in data set [7] (setting [16]), 0; in data set [7] (setting [17]) it was 0; in data set [7] (setting [18]), 0. Also, the “No. Shoots” value in [7] (setting [19]) is 0; in data set [7] (setting [20]), 0; in data set [7] (setting [21]) it was 0; in data set [7] (setting [22]), 84; in data set [7] (setting [23]), 20; in [7] (setting [24]), 7. Further, the “GUS+ shoots/no. Shoots (%)” value in data set [5] (setting [22]) came out at 0%; in data set [5] (setting [23]), 0%; in data set [5] (setting [24]), 0%; in [7] (setting [22]) it was 6%; in data set [7] (setting [23]) it was 0%; in data set [7] (setting [24]), 57.1%. Moreover, the “# of Shoots per explant” value in the data set with potato stem segments [6] (5 g/l) and with potato stem segments [6] (10 g/l) was 0 in each case. The activity at 5000 µg/mL in the data set on potato stem segments [6] (5 g/l, read-out: Size % of control) was determined as 17%; in the data set on potato stem segments [6] (5 g/l, read-out: explants alive % of control), 0%. The activity at 10000 µg/mL in the data set with potato stem segments [6] (setting [25]) was 13%; in the data set on potato stem segments [6] (setting [26]), 0%. In the data set on potato stem segments [6] (potato stem segments when sucrose is present), the “effect on shoot regeneration, in words” value is “inhibitor of shoot regeneration”. In addition, in the data set with potato stem segments [8] (when sucrose is present, compared to D-mannose), the “inhibition of shoot regeneration, in words” value was “weak inhibitor of shoot regeneration”. The “Number of regenerated shoots each stem segment” value is listed as 0 with potato stem segments [8] (xylose 5 g/l, sucrose 0 g/l, 12 weeks); 3 in the data set on potato stem segments [8] (xylose 5 g/l, sucrose 10 g/l); 0 in the data set on potato stem segments [8] (xylose 10 g/l, sucrose 0 g/l); 0 in the data set with potato stem segments [8] (xylose 10 g/l, sucrose 10 g/l); 0 with potato stem segments [8] (xylose 20 g/l, sucrose 0 g/l); 0 in the data set with potato stem segments [8] (xylose 20 g/l, sucrose 10 g/l).

Take `CC(C)=CCNc1nc(S[C@@H]2O[C@H](C(=O)O)[C@@H](O)[C@H](O)[C@H]2O)nc2[nH]cnc12` [IP2SGN sodium salt, 6-(3-methyl-but-2-enylamino)purine-2-yl-1-thio-β-D-glucopyranuronic acid, sodium salt]: in [3] (2500 Fishman units, 48 hours, HPLC), the “partial removal of the glucuronide by GUS” value stood at 65%. Further, the solubility in words entry in the data set “Solubility” (50% aqueous alcohol) is “sparingly soluble”. Further, in data set [1], the “Shoot formation, GUS-” value is “+ ("+" means shoot formation at concentrations below 250 μM)”. For the same compound, the “Shoot formation, GUS+” value in data set [2] is “+ ("+" means shoot formation at concentrations below 250 μM)”.

As for `OC[C@H]1O[C@@](CO)(O[C@H]2O[C@H](CO)[C@@H](O)[C@H](O)[C@H]2O)[C@@H](O)[C@@H]1O` [sucrose], the “% expl. with shoots” value in data set [4] (setting [27]) worked out at 50%; in data set [4] (setting [28]), 98%. The “Green (%)” value worked out at 97% in data set [4] (setting [27]) and 100% in data set [4] (setting [28]). The results for the “weight (wet)” value in data set [4] (setting [27]) and in [4] (setting [28]) were 1.38 g and 7.41 g, respectively. The “percentage of live explants” value with explants was 100. Further, the “# of Shoots per explant” value in the data set with potato stem segments [6] (10 g/l) was found to be 2.8. For the same compound, the activity at 10000 µg/mL in the data set with potato stem segments [6] (setting [25]) and with potato stem segments [6] (setting [26]) was 100% each time. Also, the “Regenerated shoots/explant (%)” value in [9] (sucrose 10 g/l) was determined as 50%; in [9] (sucrose 20 g/l), 53%. Moreover, the Regeneration of shoots in data set [10] was determined as 1.4 shoots/explant; in the data set with Wild type explants, 1.7 shoots/explant. Also, the “Number of regenerated shoots each stem segment” value with potato stem segments [8] (xylose 0 g/l, sucrose 10 g/l) is on record as 6.

For the origin of these results see patent publication US5994629A, “Positive selection” (priority 1991, dated 1999).
